Test results: BindingDB's records for doi:10.1021/acs.jmedchem.9b00021 (2019)

Target: T1, Menin (Homo sapiens, UniProt O00255)
T1 sequence (O00255 whole entry): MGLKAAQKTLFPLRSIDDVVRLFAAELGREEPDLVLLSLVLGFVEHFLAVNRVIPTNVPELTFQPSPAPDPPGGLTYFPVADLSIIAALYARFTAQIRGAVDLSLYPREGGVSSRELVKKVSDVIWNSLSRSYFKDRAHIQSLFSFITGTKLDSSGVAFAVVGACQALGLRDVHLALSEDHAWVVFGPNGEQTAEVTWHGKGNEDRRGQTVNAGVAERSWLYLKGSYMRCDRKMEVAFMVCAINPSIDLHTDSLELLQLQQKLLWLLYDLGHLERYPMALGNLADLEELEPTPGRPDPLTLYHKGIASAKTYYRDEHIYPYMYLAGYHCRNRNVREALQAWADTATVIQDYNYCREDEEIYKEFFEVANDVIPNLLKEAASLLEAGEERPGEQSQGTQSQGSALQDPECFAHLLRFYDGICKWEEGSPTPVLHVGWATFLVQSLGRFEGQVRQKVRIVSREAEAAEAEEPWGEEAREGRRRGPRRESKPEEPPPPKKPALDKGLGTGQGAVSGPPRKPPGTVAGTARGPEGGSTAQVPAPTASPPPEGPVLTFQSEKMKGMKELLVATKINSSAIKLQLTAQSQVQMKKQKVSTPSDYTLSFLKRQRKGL
Assay: Inhibition of FAM-probe binding to Menin (unknown origin) after 60 mins by fluorescence polarization competitive binding assay

`CC(=O)O[C@@H]1CCC[C@H]1[C@](C#N)(c1ccccc1)C1CCN(CC2CN(c3ccc(C#N)cc3)C2)CC1` was tested, and the IC50 was 3.5 µM and the Ki was 1.1 µM.
